Biological target: T1, PRMT5/MEP50 (Homo sapiens, UniProt O14744)
T1 construct: Flag-PRMT5; made in house; host or cells: Spodoptera frugiperda (SF9), baculovirus
Test: PRMT5 Biochemical Assay (PRMT5/MEP50 enzyme assay on histone H4 peptide substrate, 3H-SAM Flashplate)
Conditions: PRMT5 biochemical assay; read-out: Biochemical IC50
Source text: S-adenosylmethionine (SAM), S-adenosylhomocysteine (SAH), bicine, KCl, Tween20, dimethylsulfoxide (DMSO), bovine skin gelatin (BSG), and Tris(2-carboxyethyl)phosphine hydrochloride solution (TCEP) were purchased from Sigma-Aldrich at the highest level of purity possible. ^3H-SAM was purchase from American Radiolabeled Chemicals with a specific activity of 80 Ci/mmol. 384-well streptavidin Flashplates were purchased from PerkinElmer.
Peptide representative of human histone H4 residues 1-15 was synthesized with a C-terminal linker-affinity tag motif and a C-terminal amide cap by 21st Century Biochemicals.
The amplified genes were sublconed into pENTR/D/TEV (Life Technologies) and subsequently transferred by Gateway™ attL×attR recombination to pDEST8 baculvirus expression vector (Life Technologies).
Protein over-expression was accomplished by infecting exponentially growing Spodoptera frugiperda (SF9) cell culture at 1.2×10^6 cell/ml with a 5000 fold dilution of BIIC stock. Infections were carried out at 27° C. for 72 hours, harvested by centrifugation, and stored at −80° C. for purification.
Flag-PRMT5/6His-MeP50 was eluted with 300 mM Imidazole in the same buffer.
General Procedure for PRMT5/MEP50 Enzyme Assays on Peptide Substrates.
The assays were all performed in a buffer consisting of 20 mM Bicine (pH=7.6), 1 mM TCEP, 0.005% BSG, and 0.002% Tween20, prepared on the day of use. […] DMSO (1 ul) was added to Columns 11, 12, 23, 24, rows A-H for the maximum signal control and 1 ul of SAH, a known product and inhibitor of PRMT5/MEP50, was added to columns 11, 12, 23, 24, rows I-P for the minimum signal control. A cocktail (40 ul) containing the PRMT5/MEP50 enzyme and the peptide was added by Multidrop Combi (Thermo-Fisher). The compounds were allowed to incubate with PRMT5/MEP50 for 30 min at 25 degrees Celsius, then a cocktail (10 ul) containing ^3H-SAM was added to initiate the reaction (final volume=51 ul). […] The assays were stopped by the addition of non-radioactive SAM (10 ul) to a final concentration of 600 uM, which dilutes the ^3H-SAM to a level where its incorporation into the peptide substrate is no longer detectable. 50 ul of the reaction in the 384-well polypropylene plate was then transferred to a 384-well Flashplate and the biotinylated peptides were allowed to bind to the streptavidin surface for at least 1 hour before being washed three times with 0.1% Tween20 in a Biotek ELx405 plate washer. The plates were then read in a PerkinElmer TopCount plate reader to measure the quantity of ^3H-labeled peptide bound to the Flashplate surface, measured as disintegrations per minute (dpm) or alternatively, referred to as counts per minute (cpm).
Where dpm=disintegrations per minute, cmpd=signal in assay well, and min and max are the respective minimum and maximum signal controls.
Where top and bottom are the normally allowed to float, but may be fixed at 100 or 0 respectively in a 3-parameter fit. The Hill Coefficient normally allowed to float but may also be fixed at 1 in a 3-parameter fit. Y is the % inhibition and X is the compound concentration.

T1 sequence (O14744 with tags, fused parts or gaps): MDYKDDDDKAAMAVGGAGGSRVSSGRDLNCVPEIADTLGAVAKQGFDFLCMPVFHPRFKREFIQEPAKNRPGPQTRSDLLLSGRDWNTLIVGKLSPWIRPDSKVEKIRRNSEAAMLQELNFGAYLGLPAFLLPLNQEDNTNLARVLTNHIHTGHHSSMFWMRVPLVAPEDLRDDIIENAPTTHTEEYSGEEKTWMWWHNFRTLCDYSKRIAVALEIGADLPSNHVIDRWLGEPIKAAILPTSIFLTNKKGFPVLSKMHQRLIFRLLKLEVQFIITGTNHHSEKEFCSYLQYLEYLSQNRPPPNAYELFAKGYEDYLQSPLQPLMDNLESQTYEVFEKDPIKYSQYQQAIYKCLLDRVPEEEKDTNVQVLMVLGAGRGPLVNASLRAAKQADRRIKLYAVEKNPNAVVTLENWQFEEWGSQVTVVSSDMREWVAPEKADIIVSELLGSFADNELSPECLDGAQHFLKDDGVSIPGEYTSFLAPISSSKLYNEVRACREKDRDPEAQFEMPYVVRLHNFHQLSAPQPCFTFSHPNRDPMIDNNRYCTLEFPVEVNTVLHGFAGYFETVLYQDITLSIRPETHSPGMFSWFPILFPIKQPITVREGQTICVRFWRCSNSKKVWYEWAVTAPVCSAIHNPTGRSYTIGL
T1 sequence (Q9BQA1 with tags, fused parts or gaps partner limits assumed): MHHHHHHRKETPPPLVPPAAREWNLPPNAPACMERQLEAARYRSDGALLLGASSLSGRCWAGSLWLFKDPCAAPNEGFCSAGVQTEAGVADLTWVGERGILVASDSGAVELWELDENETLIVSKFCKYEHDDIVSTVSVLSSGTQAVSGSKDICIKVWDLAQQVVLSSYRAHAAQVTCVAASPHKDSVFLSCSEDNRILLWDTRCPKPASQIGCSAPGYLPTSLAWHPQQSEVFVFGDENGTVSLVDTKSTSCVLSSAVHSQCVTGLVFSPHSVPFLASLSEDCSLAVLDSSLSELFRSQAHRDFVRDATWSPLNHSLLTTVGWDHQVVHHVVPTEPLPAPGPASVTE

IC50 | Compound
1000 to 10000 nM | Cc1ccc(C(=O)CC2NC(N3CCN(c4ccccc4F)CC3)=NC2=O)cc1 (stereo not drawn) [Compound 30-14]
1000 to 10000 nM | Cc1ccc(C(=O)CC2NC(N3CCN(c4cccc(F)c4)CC3)=NC2=O)cc1 (stereo not drawn) [Compound 31-14]
1000 to 10000 nM | Cc1ccc(C(=O)CC2NC(N3CCN(c4ccc(F)cc4)CC3)=NC2=O)cc1 (stereo not drawn) [Compound 32-14]
1000 to 10000 nM | Cc1ccc(C(=O)CC2NC(N3CCN(c4ccccn4)CC3)=NC2=O)cc1 (stereo not drawn) [Compound 33-14]
10000 to 50000 nM | Cc1ccc(C(=O)CC2NC(N3CCN(c4ccncc4)CC3)=NC2=O)cc1 (stereo not drawn) [Compound 34-14]
1000 to 10000 nM | Cc1ccc(C(=O)CC2NC(N3CCN(Cc4ccc(F)cc4)CC3)=NC2=O)cc1 (stereo not drawn) [Compound 35-14]
1000 to 10000 nM | Cc1ccc(C(=O)CC2NC(N3Cc4ccccc4C3)=NC2=O)cc1 (stereo not drawn) [Compound 36-14]
101 to 1000 nM | O=C(CC1NC(N2CCN(c3ccccc3)CC2)=NC1=O)c1ccccc1 (stereo not drawn) [Compound 37-14]
1000 to 10000 nM | COc1ccc(C(=O)CC2NC(N3CCN(c4ccccc4)CC3)=NC2=O)cc1 (stereo not drawn) [Compound 38-14]
101 to 1000 nM | COc1cccc(C(=O)CC2NC(N3CCN(c4ccccc4)CC3)=NC2=O)c1 (stereo not drawn) [Compound 39-14]
1000 to 10000 nM | N#Cc1ccc(C(=O)CC2NC(N3CCN(c4ccccc4)CC3)=NC2=O)cc1 (stereo not drawn) [Compound 40-14]
101 to 1000 nM | O=C(CC1NC(N2CCN(c3ccccc3)CC2)=NC1=O)c1ccc(Cl)cc1 (stereo not drawn) [Compound 42-14]
1000 to 10000 nM | Cc1ccc(C(=O)CC2NC(N3CCN(c4cccnc4)CC3)=NC2=O)cc1 (stereo not drawn) [Compound 43-14]
1000 to 10000 nM | Cc1ccc(C(=O)CC2NC(N3CCN(Cc4ccncc4)CC3)=NC2=O)cc1 (stereo not drawn) [Compound 44-14]
1000 to 10000 nM | N#Cc1cccc(C(=O)CC2NC(N3CCN(c4ccccc4)CC3)=NC2=O)c1 (stereo not drawn) [Compound 46-14]
101 to 1000 nM | O=C(CC1NC(N2CCN(c3ccccc3)CC2)=NC1=O)c1cccc(Cl)c1 (stereo not drawn) [Compound 47-14]
10000 to 50000 nM | O=C(CC1NC(N2CCN(c3ccccc3)CC2)=NC1=O)Nc1ccccc1Cl (stereo not drawn) [Compound 49-14]
1000 to 10000 nM | O=C(CC1NC(N2CCN(c3ccccc3)CC2)=NC1=O)Nc1cccc(Cl)c1 (stereo not drawn) [Compound 50-14]
10000 to 50000 nM | O=C(CC1NC(N2CCN(c3ccccc3)CC2)=NC1=O)Nc1cccc(Cl)c1Cl (stereo not drawn) [Compound 51-14]
10000 to 50000 nM | O=C(CC1NC(N2CCN(c3ccccc3)CC2)=NC1=O)NC1CCCCC1 (stereo not drawn) [Compound 52-14]
1000 to 10000 nM | O=C(CC1NC(N2CCC(c3ccccc3)CC2)=NC1=O)Nc1ccc(Cl)cc1 (stereo not drawn) [Compound 57-14]
101 to 1000 nM | O=C(CC1NC(N2CCN(c3ccccc3)CC2)=NC1=O)Nc1ccc(Cl)cc1Cl (stereo not drawn) [Compound 58-14]
101 to 1000 nM | O=C(CC1NC(N2CCN(c3ccccc3)CC2)=NC1=O)Nc1ccc(Cl)c(Cl)c1 (stereo not drawn) [Compound 59-14]
10000 to 50000 nM | COc1ccccc1NC(=O)CC1NC(N2CCN(c3ccccc3)CC2)=NC1=O (stereo not drawn) [Compound 60-14]

More lines, now with the values behind:

Compound | IC50
NCCCN(CCN)C[C@H]1O[C@@H](n2cnc3c(N)ncnc32)[C@H](O)[C@@H]1O [Compound 30-1] | < 100 nM
NCCN(CCCC(=O)O)C[C@H]1O[C@@H](n2cnc3c(N)ncnc32)[C@H](O)[C@@H]1O [Compound 31-1] | < 100 nM
CN(CCC[C@@H](N)C(=O)O)C[C@H]1O[C@@H](n2cnc3c(N)ncnc32)[C@H](O)[C@@H]1O [Compound 32-1] | 101 to 1000 nM
CC(CCCN(CCN)C[C@H]1O[C@@H](n2cnc3c(N)ncnc32)[C@H](O)[C@@H]1O)C(=O)O (stereo partly drawn) [Compound 33-1] | < 100 nM
NCCN(CCCCC(=O)O)C[C@H]1O[C@@H](n2cnc3c(N)ncnc32)[C@H](O)[C@@H]1O [Compound 34-1] | < 100 nM
NCCN(CCC[C@H](N)CO)C[C@H]1O[C@@H](n2cnc3c(N)ncnc32)[C@H](O)[C@@H]1O [Compound 35-1] | 101 to 1000 nM
CN(C)CCN(C)C[C@H]1O[C@@H](n2cnc3c(N)ncnc32)[C@H](O)[C@@H]1O [Compound 37-1] | 101 to 1000 nM
CCN(CC)CCN(C)C[C@H]1O[C@@H](n2cnc3c(N)ncnc32)[C@H](O)[C@@H]1O [Compound 38-1] | 101 to 1000 nM
CN1CCC(N(C)CCN(C)C[C@H]2O[C@@H](n3cnc4c(N)ncnc43)[C@H](O)[C@@H]2O)C1 (stereo partly drawn) [Compound 39-1] | 101 to 1000 nM
CN(CCN1CCCN(Cc2ccccc2)CC1)C[C@H]1OC(n2cnc3c(N)ncnc32)[C@H](O)[C@@H]1O (stereo partly drawn) [Compound 40-1] | 101 to 1000 nM
CN(CCN1CCC(Oc2ccccn2)CC1)C[C@H]1OC(n2cnc3c(N)ncnc32)[C@H](O)[C@@H]1O (stereo partly drawn) [Compound 41-1] | 101 to 1000 nM
Cc1ccc(C(=O)CC2NC(N(C)CCc3ccccc3)=NC2=O)cc1 (stereo not drawn) [Compound 41-14] | 1000 to 10000 nM
CCCN(CCN(C)C[C@H]1O[C@@H](n2cnc3c(N)ncnc32)[C@H](O)[C@@H]1O)CC1CC1 [Compound 42-1] | 101 to 1000 nM
CN(CCN1CCC(c2ccccc2)CC1)CC1OC(n2cnc3c(N)ncnc32)[C@H](O)[C@@H]1O (stereo partly drawn) [Compound 43-1] | 101 to 1000 nM
CC1CCN(CCN(C)C[C@H]2O[C@@H](n3cnc4c(N)ncnc43)[C@H](O)[C@@H]2O)CC1 [Compound 44-1] | 101 to 1000 nM
CN(CCN1CCN(CCc2ccccc2)CC1)C[C@H]1O[C@@H](n2cnc3c(N)ncnc32)[C@H](O)[C@@H]1O [Compound 45-1] | 101 to 1000 nM
Cc1ccc(C(=O)CC2NC(N(C)CCN(C)c3ccccc3)=NC2=O)cc1 (stereo not drawn) [Compound 45-14] | 10000 to 50000 nM
CN(CCO)CCN(C)C[C@H]1O[C@@H](n2cnc3c(N)ncnc32)[C@H](O)[C@@H]1O [Compound 46-1] | 101 to 1000 nM

Compound | IC50
CN(CCc1c[nH]cn1)CCN(C)C[C@H]1O[C@@H](n2cnc3c(N)ncnc32)[C@H](O)[C@@H]1O [Compound 47-1] | 101 to 1000 nM
COc1ccccc1C(=O)CC1NC(N2CCC(c3ccccc3)CC2)=NC1=O (stereo not drawn) [Compound 48-14] | 101 to 1000 nM
CN(CCN(CC[C@H](N)C(=O)OCc1ccccc1)C[C@H]1O[C@@H](n2cnc3c(N)ncnc32)[C@H](O)[C@@H]1O)C(=O)OCc1ccccc1 [Compound 49-1] | < 100 nM
CCN(CCc1ccc(Cl)cc1)CCN(C)C[C@H]1O[C@@H](n2cnc3c(N)ncnc32)[C@H](O)[C@@H]1O [Compound 50-1] | 101 to 1000 nM
CN(CCN(CCc1ccc(Cl)cc1)Cc1ccccc1)C[C@H]1O[C@@H](n2cnc3c(N)ncnc32)[C@H](O)[C@@H]1O [Compound 51-1] | 101 to 1000 nM
CN(CCc1ccc(Cl)cc1)CCN(C)C[C@H]1O[C@@H](n2cnc3c(N)ncnc32)[C@H](O)[C@@H]1O [Compound 52-1] | 101 to 1000 nM
CN(CCNC1CCNCC1)C[C@H]1O[C@@H](n2cnc3c(N)ncnc32)[C@H](O)[C@@H]1O [Compound 53-1] | 101 to 1000 nM
O=C(CC1NC(N2CCN(c3ccccc3)CC2)=NC1=O)NCC1CCCCC1 (stereo not drawn) [Compound 53-14] | 1000 to 10000 nM
CN(CCNC1CCCCC1)C[C@H]1O[C@@H](n2cnc3c(N)ncnc32)[C@H](O)[C@@H]1O [Compound 54-1] | < 100 nM
COc1ccccc1C(O)CC1N=C(N2CCN(c3ccccc3)CC2)NC1=O (stereo not drawn) [Compound 54-14] | 10000 to 50000 nM
CN(CCNCCc1c[nH]c2ccccc12)C[C@H]1O[C@@H](n2cnc3c(N)ncnc32)[C@H](O)[C@@H]1O [Compound 55-1] | < 100 nM
COc1ccccc1C(=O)CC1NC(N2CCC(O)(c3ccccc3)CC2)=NC1=O (stereo not drawn) [Compound 55-14] | 101 to 1000 nM
CN(CCNc1ccccn1)C[C@H]1O[C@@H](n2cnc3c(N)ncnc32)[C@H](O)[C@@H]1O [Compound 56-1] | 101 to 1000 nM
O=C(CC1NC(N2CCc3ccccc3C2)=NC1=O)Nc1ccc(Cl)cc1 (stereo not drawn) [Compound 56-14] | 101 to 1000 nM
CN(CCNc1ccccc1)CC1O[C@@H](n2cnc3c(N)ncnc32)[C@H](O)[C@@H]1O (stereo partly drawn) [Compound 57-1] | < 100 nM
CC(CO)NCCN(C)C[C@H]1O[C@@H](n2cnc3c(N)ncnc32)[C@H](O)[C@@H]1O (stereo partly drawn) [Compound 58-1] | < 100 nM
COCCNCCN(C)C[C@H]1O[C@@H](n2cnc3c(N)ncnc32)[C@H](O)[C@@H]1O [Compound 59-1] | 101 to 1000 nM
CN(CCNCCc1ccccc1Cl)C[C@H]1O[C@@H](n2cnc3c(N)ncnc32)[C@H](O)[C@@H]1O [Compound 60-1] | < 100 nM

Source: patent US20170198006A1, “PRMT5 INHIBITORS AND USES THEREOF” (Epizyme, Inc., priority 2014, published 2017)
